Measurements from patent US20040076586A1, “Compositions and methods for delivering pharmaceutically active agents using nanoparticulates” (priority 2002, published 2004).

CCOC(=O)CCCCCOC(=O)c1c(I)c(NC(C)=O)c(I)c(NC(C)=O)c1I [PH-50, 6-ethoxy-6-oxohexy-3,5-bis(acetylamino)-2,4,6-triiodobenzoate]
half-life in the vascular structures (at functionally active concentrations, until metabolized by the liver): 30 to 60 min | route of excretion (in vivo): excreted from the body via the hepatic system rather than the renal system
